Results taken from patent US20230203081A1, “LINCOSAMIDE ANTIBIOTICS AND USES THEREOF” (President and Fellows of Harvard College, priority 2020, published 2023).
In brackets after ≈: the same amount, converted by molar mass.

System: broad panel of different clinical isolates
Assay: microbe, parasite or virus in culture
Format: cell-based
Method in brief: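 Per CLSI, MICs by broth microdilution or agar dilution; strains other than streptococci and anaerobes were sub-cultured overnight at 35° C on blood agar, with a final broth inoculum of 5×10^5 CFU/mL.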

[1] = Acinetobacter baumannii, A. baumannii HAV#651, Clinical
[2] = Acinetobacter baumannii, A. baumannii HAV#652 Clinical
[3] = Acinetobacter baumannii, A. baumannii HAV#653, Clinical
[4] = Acinetobacter baumannii, A. baumannii HAV#654, Clinical
[5] = Acinetobacter baumannii, A. baumannii HAV#655, Clinical
[6] = Acinetobacter baumannii, A. baumannii HAV#656, Clinical
[7] = Acinetobacter baumannii, A. baumannii HAV#657, Clinical
[8] = Acinetobacter baumannii, A. baumannii HAV#658, Clinical
[9] = Acinetobacter baumannii, A. baumannii HAV#659, Clinical
[10] = Acinetobacter baumannii, A. baumannii HAV#660, Clinical
[11] = Acinetobacter baumannii, A. baumannii HAV#661, Clinical
[12] = Acinetobacter baumannii, A. baumannii HAV#662, Clinical
[13] = Acinetobacter baumannii, A. baumannii HAV#663, Clinical
[14] = Acinetobacter baumannii, A. baumannii HAV#664, Carbapenem R
[15] = Enterococcus faecalis, E. faecalis HAV#602, Clincal
[16] = Enterococcus faecalis, E. faecalis HAV#607, Clinical
[17] = Enterococcus faecalis, E. faecalis HAV#609, Clinical
[18] = Enterococcus faecalis, S. faecalis 5060, Line R & Vanco R
[19] = Enterococcus faecalis, S. faecalis 5074, Line R
[20] = Enterococcus faecalis, VRE, E. faecalis HAV#251, Clinical VRE
[21] = Enterococcus faecalis, VRE, E. faecalis HAV#606, Clinical
[22] = Enterococcus faecium, E. faecium HAV#317, Clinical
[23] = Enterococcus faecium, E. faecium HAV#324, Clinical
[24] = Enterococcus faecium, E. faecium HAV#327, Clinical
[25] = Enterococcus faecium, E. faecium HAV#329, Clinical
[26] = Enterococcus faecium, VRE, E. faecium HAV#318, VanA
[27] = Enterococcus faecium, VRE, E. faecium HAV#319, Line R & Vanco R
[28] = Enterococcus faecium, VRE, E. faecium HAV#320, Clinical
[29] = Escherichia coli, E. coli HAV#503, Clinical
[30] = Escherichia coli, E. coli HAV#511, Clinical
[31] = Escherichia coli, E. coli HAV#512, Clinical
[32] = Escherichia coli, E. coli HAV#513, Clinical
[33] = Escherichia coli, E. coli HAV#514, Clinical
[34] = Escherichia coli, E. coli HAV#516, ESBL-producing
[35] = Haemophilus influenzae, ATCC9007, H. influenzae HAV#376, ATCC-9007
[36] = Klebsiella pneumoniae, K. pneumoniae HAV#404, Clinical
[37] = Klebsiella pneumoniae, K. pneumoniae HAV#405, Clinical
[38] = Klebsiella pneumoniae, K. pneumoniae HAV#406, Clinical
[39] = Klebsiella pneumoniae, K. pneumoniae HAV#407, Clinical
[40] = Klebsiella pneumoniae, K. pneumoniae HAV#408, Clinical
[41] = Klebsiella pneumoniae, K. pneumoniae HAV#409, ESBL-producing
[42] = Staphylococcus aureus, MRSA, S. aureus HAV#0107, MRSA Col(Colindale, England)
[43] = Staphylococcus aureus, MRSA, S. aureus HAV#218, Line R
[44] = Staphylococcus aureus, MRSA, S. aureus HAV#220, Line R
[45] = Staphylococcus aureus, MSSA, S. aureus HAV#219, Line R
[46] = Staphylococcus aureus, S. aureus HAV#051, mecA, norA, spcl, ermA, aad1, aac6′-aph2″
[47] = Staphylococcus aureus, S. aureus HAV#052, mecA, norA, fosB, blaZ
[48] = Staphylococcus aureus, S. aureus HAV#053 mecA, norA, fosB
[49] = Staphylococcus aureus, S. aureus HAV#054, mecA, norA, spcl, aad1, fosB, ermA, aac6′-aph2″, blaZ
[50] = Staphylococcus aureus, S. aureus HAV#211, Clinical
[51] = Staphylococcus aureus, S. aureus HAV#212, Clinical
[52] = Staphylococcus aureus, S. aureus HAV#214, Clinical
[53] = Staphylococcus aureus, S. aureus HAV#216, Clinical, cfr
[54] = Staphylococcus aureus, S. aureus HAV#217, cfr
[55] = Staphylococcus aureus, VISA, S. aureus HAV#203, Clinical (VISA)
[56] = Staphylococcus epidermidis, S. epidermidis HAV# 275 Clinical, cfr
[57] = Staphylococcus epidermidis, S. epidermidis HAV# 276, cfr
[58] = Staphylococcus epidermidis, S. epidermidis HAV#277, Line R
[59] = Staphylococcus epidermidis, S. epidermidis HAV#278 Line R
[60] = Staphylococcus epidermidis, S. epidermidis HAV#279, Line R
[61] = Staphylococcus haemolyticus, S. haemolyticus 5052, Line R & Methicillin R
[62] = Streptococcus pneumoniae, ATCC700673, S. pneumoniae HAV#352, ATCC 700673, MDR
[63] = Streptococcus pneumoniae, ATCCBAA255, S. pneumoniae HAV#354, ATCC-BAA-255
[64] = Streptococcus pneumoniae, ATCCBAA334, S. pneumoniae HAV#353, ATCC-BAA-334
[65] = Streptococcus pneumoniae, S. pneumoniae HAV#356, Clinical
[66] = Streptococcus pneumoniae, S. pneumoniae HAV#358, Clinical

CC(=O)NC[C@H]1CN(c2ccc(N3CCOCC3)c(F)c2)C(=O)O1 [Linezolid]
MIC [1]: 16 µg/mL (≈ 47.4 µM)
MIC [2]: 32 µg/mL (≈ 94.9 µM)
MIC [3]: 32 µg/mL (≈ 94.9 µM)
MIC [4]: 32 µg/mL (≈ 94.9 µM)
MIC [5]: 128 µg/mL (≈ 379 µM)
MIC [6]: 64 µg/mL (≈ 190 µM)
MIC [7]: 64 µg/mL (≈ 190 µM)
MIC [8]: 64 µg/mL (≈ 190 µM)
MIC [9]: 64 µg/mL (≈ 190 µM)
MIC [10]: 64 µg/mL (≈ 190 µM)
MIC [11]: 32 µg/mL (≈ 94.9 µM)
MIC [12]: 64 µg/mL (≈ 190 µM)
MIC [13]: 32 µg/mL (≈ 94.9 µM)
MIC [14]: 64 µg/mL (≈ 190 µM)
MIC [15]: 4 µg/mL (≈ 11.9 µM)
MIC [16]: 16 µg/mL (≈ 47.4 µM)
MIC [17]: 4 µg/mL (≈ 11.9 µM)
MIC [18]: 8 µg/mL (≈ 23.7 µM)
MIC [19]: 8 µg/mL (≈ 23.7 µM)
MIC [20]: 2 µg/mL (≈ 5.93 µM)
MIC [21]: 2 µg/mL (≈ 5.93 µM)
MIC [22]: 2 µg/mL (≈ 5.93 µM)
MIC [23]: 4 µg/mL (≈ 11.9 µM)
MIC [24]: 4 µg/mL (≈ 11.9 µM)
MIC [25]: 4 µg/mL (≈ 11.9 µM)
MIC [26]: 4 µg/mL (≈ 11.9 µM)
MIC [27]: 64 µg/mL (≈ 190 µM)
MIC [28]: 2 µg/mL (≈ 5.93 µM)
MIC [29]: 128 µg/mL (≈ 379 µM)
MIC [30]: 32 µg/mL (≈ 94.9 µM)
MIC [31]: 32 µg/mL (≈ 94.9 µM)
MIC [32]: 32 µg/mL (≈ 94.9 µM)
MIC [33]: 32 µg/mL (≈ 94.9 µM)
MIC [34]: 64 µg/mL (≈ 190 µM)
MIC [35]: 4 µg/mL (≈ 11.9 µM)
MIC [36]: 32 µg/mL (≈ 94.9 µM)
MIC [37]: 32 µg/mL (≈ 94.9 µM)
MIC [38]: 32 µg/mL (≈ 94.9 µM)
MIC [39]: 32 µg/mL (≈ 94.9 µM)
MIC [40]: 32 µg/mL (≈ 94.9 µM)
MIC [41]: 64 µg/mL (≈ 190 µM)
MIC [42]: 2 µg/mL (≈ 5.93 µM)
MIC [43]: 8 µg/mL (≈ 23.7 µM)
MIC [44]: 32 µg/mL (≈ 94.9 µM)
MIC [45]: 32 µg/mL (≈ 94.9 µM)
MIC [46]: 4 µg/mL (≈ 11.9 µM)
MIC [47]: 4 µg/mL (≈ 11.9 µM)
MIC [48]: 4 µg/mL (≈ 11.9 µM)
MIC [49]: 1 µg/mL (≈ 2.96 µM)
MIC [50]: 4 µg/mL (≈ 11.9 µM)
MIC [51]: 4 µg/mL (≈ 11.9 µM)
MIC [52]: 4 µg/mL (≈ 11.9 µM)
MIC [53]: 16 µg/mL (≈ 47.4 µM)
MIC [54]: 64 µg/mL (≈ 190 µM)
MIC [55]: 2 µg/mL (≈ 5.93 µM)
MIC [56]: > 64 µg/mL
MIC [57]: > 64 µg/mL
MIC [58]: > 128 µg/mL
MIC [59]: 64 µg/mL (≈ 190 µM)
MIC [60]: 4 µg/mL (≈ 11.9 µM)
MIC [61]: 64 µg/mL (≈ 190 µM)
MIC [62]: 4 µg/mL (≈ 11.9 µM)
MIC [63]: 4 µg/mL (≈ 11.9 µM)
MIC [64]: 4 µg/mL (≈ 11.9 µM)
MIC [65]: 4 µg/mL (≈ 11.9 µM)
MIC [66]: 4 µg/mL (≈ 11.9 µM)

CN[C@H](CC(C)C)C(=O)N[C@H]1C(=O)N[C@@H](CC(N)=O)C(=O)N[C@H]2C(=O)N[C@H]3C(=O)N[C@H](C(=O)N[C@H](C(=O)O)c4cc(O)cc(O)c4-c4cc3ccc4O)[C@H](O)c3ccc(c(Cl)c3)Oc3cc2cc(c3O[C@@H]2O[C@H](CO)[C@@H](O)[C@H](O)[C@H]2O[C@H]2C[C@](C)(N)[C@H](O)[C@H](C)O2)Oc2ccc(cc2Cl)[C@H]1O [Vancomycin]
MIC [1]: 128 µg/mL (≈ 88.3 µM)
MIC [2]: 128 µg/mL (≈ 88.3 µM)
MIC [3]: 128 µg/mL (≈ 88.3 µM)
MIC [4]: 128 µg/mL (≈ 88.3 µM)
MIC [5]: 128 µg/mL (≈ 88.3 µM)
MIC [6]: > 128 µg/mL
MIC [7]: > 128 µg/mL
MIC [8]: > 128 µg/mL
MIC [9]: > 128 µg/mL
MIC [10]: > 128 µg/mL
MIC [11]: 128 µg/mL (≈ 88.3 µM)
MIC [12]: > 128 µg/mL
MIC [13]: 128 µg/mL (≈ 88.3 µM)
MIC [14]: > 128 µg/mL
MIC [15]: 4 µg/mL (≈ 2.76 µM)
MIC [16]: > 128 µg/mL
MIC (Enterococcus faecalis, E. faecalis HAV#608, Clinical): 16 µg/mL (≈ 11 µM)
MIC [17]: 32 µg/mL (≈ 22.1 µM)
MIC (Enterococcus faecalis, E. faecalis HAV#610, Clinical): 32 µg/mL (≈ 22.1 µM)
MIC [18]: > 256 µg/mL
MIC [19]: 2 µg/mL (≈ 1.38 µM)
MIC [20]: 8 µg/mL (≈ 5.52 µM)
MIC [21]: > 128 µg/mL
MIC [22]: 2 µg/mL (≈ 1.38 µM)
MIC [23]: > 128 µg/mL
MIC [24]: 4 µg/mL (≈ 2.76 µM)
MIC (Enterococcus faecium, E. faecium HAV#328, Clinical): > 128 µg/mL
MIC [25]: > 128 µg/mL
MIC [26]: > 64 µg/mL
MIC [27]: > 256 µg/mL
MIC [28]: > 128 µg/mL
MIC [29]: 128 µg/mL (≈ 88.3 µM)
MIC [30]: > 128 µg/mL
MIC [31]: > 128 µg/mL
MIC [32]: > 128 µg/mL
MIC [33]: 128 µg/mL (≈ 88.3 µM)
MIC [34]: 128 µg/mL (≈ 88.3 µM)
MIC [35]: > 64 µg/mL
MIC [36]: > 128 µg/mL
MIC [37]: > 128 µg/mL
MIC [38]: > 128 µg/mL
MIC [39]: > 128 µg/mL
MIC [40]: > 128 µg/mL
MIC [41]: > 128 µg/mL
MIC [42]: 2 µg/mL (≈ 1.38 µM)
MIC [43]: 1 µg/mL (≈ 0.69 µM)
MIC [44]: 1 µg/mL (≈ 0.69 µM)
MIC [45]: 1 µg/mL (≈ 0.69 µM)
MIC [46]: 2 µg/mL (≈ 1.38 µM)
MIC [47]: 2 µg/mL (≈ 1.38 µM)
MIC [48]: 2 µg/mL (≈ 1.38 µM)
MIC [49]: 1 µg/mL (≈ 0.69 µM)
MIC [50]: 0.5 µg/mL (≈ 0.345 µM)
MIC [51]: 0.5 µg/mL (≈ 0.345 µM)
MIC (Staphylococcus aureus, S. aureus HAV#213, Clinical): 0.5 µg/mL (≈ 0.345 µM)
MIC [52]: 0.5 µg/mL (≈ 0.345 µM)
MIC (Staphylococcus aureus, S. aureus HAV#215, Clinical): 1 µg/mL (≈ 0.69 µM)
MIC [53]: > 64 µg/mL
MIC [54]: > 64 µg/mL
MIC [55]: 8 µg/mL (≈ 5.52 µM)
MIC [56]: > 64 µg/mL
MIC [57]: > 64 µg/mL
MIC [58]: 2 µg/mL (≈ 1.38 µM)
MIC [59]: 2 µg/mL (≈ 1.38 µM)
MIC [60]: 2 µg/mL (≈ 1.38 µM)
MIC [61]: 1 µg/mL (≈ 0.69 µM)
MIC [62]: 0.5 µg/mL (≈ 0.345 µM)
MIC [63]: 1 µg/mL (≈ 0.69 µM)
MIC [64]: 0.5 µg/mL (≈ 0.345 µM)
MIC [65]: 2 µg/mL (≈ 1.38 µM)
MIC [66]: 1 µg/mL (≈ 0.69 µM)
